In ChEMBL document CHEMBL4152341, “Small Molecules Simultaneously Inhibiting p53-Murine Double Minute 2 (MDM2) Interaction and Histone Deacetylases (HDACs): Discovery of Novel Multitargeting Antitumor Agents” (J Med Chem, 2018):
The source made the active and inactive calls. The rule behind the calls is not given here.

How the values were obtained:
[1] = target: E3 ubiquitin-protein ligase Mdm2 (Homo sapiens, UniProt Q00987); test: Inhibition of MDM2 (unknown origin) preincubated for 30 mins by fluorescence polarization assay
[2] = test system: A549; test: Antiproliferative activity against human A549 cells after 72 hrs by CCK8 assay; assay type: functional, cell-based; details: A549, 72 h
[3] = target: T1, Tumour suppressor p53/oncoprotein Mdm2 (Homo sapiens) (UniProt P04637+Q00987); test: Inhibition of MDM2/P53 interaction in human A549 cells assessed as increase in p53 expression at 5 to 10 uM after 12 hrs by Western blot analysis; assay type: cell-based
[4] = test system: HCT-116; test: Antiproliferative activity against human HCT116 cells after 72 hrs by CCK8 assay; assay type: functional, cell-based; details: HCT-116, 72 h
[5] = target: T1, Tumour suppressor p53/oncoprotein Mdm2 (Homo sapiens); test: Inhibition of MDM2/P53 interaction in human A549 cells assessed as increase in MDM2 expression at 5 to 10 uM after 12 hrs by Western blot analysis; assay type: cell-based
[6] = target: Histone deacetylase 1 (Homo sapiens, UniProt Q13547); test: Inhibition of human recombinant full length HDAC1 using fluorogenic substrate 3 after 30 mins by fluorescence assay
[7] = test system: A549; test: cells; details: Homo sapiens, A549, 48 h, read-out: Activity
[8] = test system: NCI-H1299; test: Antiproliferative activity against human NCI-H1299 cells after 72 hrs by CCK8 assay; assay type: functional, cell-based; details: NCI-H1299, 72 h
[9] = test system: MCF7; test: cells; details: Homo sapiens, MCF7, 72 h
Description: Antiproliferative activity against human MCF7 cells after 72 hrs by CCK8 assay

[10] = test system: A549; test: cells; details: Homo sapiens, A549, 48 h, read-out: Activity; remark: listed apart in the source
[11] = test system: A549; test: animal or person; assay type: functional, Homo sapiens; details: Mus musculus, A549, po, read-out: TGI
[12] = target: T1, Tumour suppressor p53/oncoprotein Mdm2 (Homo sapiens); test: Inhibition of MDM2/P53 interaction in human A549 cells assessed as increase in p53 expression at 10 uM after 12 hrs by Western blot analysis; assay type: cell-based

Chain of Histone deacetylase 1 (Q13547 whole entry): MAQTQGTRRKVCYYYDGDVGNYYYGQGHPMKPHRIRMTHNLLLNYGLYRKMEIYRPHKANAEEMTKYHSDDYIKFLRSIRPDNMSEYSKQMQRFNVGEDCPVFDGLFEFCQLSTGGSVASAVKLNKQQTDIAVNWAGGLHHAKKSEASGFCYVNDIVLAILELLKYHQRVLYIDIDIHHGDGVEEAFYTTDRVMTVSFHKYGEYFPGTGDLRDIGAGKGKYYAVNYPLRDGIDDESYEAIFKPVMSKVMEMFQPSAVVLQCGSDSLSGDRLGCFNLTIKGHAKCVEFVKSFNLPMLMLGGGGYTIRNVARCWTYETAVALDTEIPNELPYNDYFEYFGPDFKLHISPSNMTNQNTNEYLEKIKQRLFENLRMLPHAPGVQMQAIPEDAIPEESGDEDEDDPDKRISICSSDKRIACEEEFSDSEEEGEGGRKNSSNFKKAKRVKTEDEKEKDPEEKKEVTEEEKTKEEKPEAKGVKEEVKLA
T1 sequence (P04637 whole entry, looked up): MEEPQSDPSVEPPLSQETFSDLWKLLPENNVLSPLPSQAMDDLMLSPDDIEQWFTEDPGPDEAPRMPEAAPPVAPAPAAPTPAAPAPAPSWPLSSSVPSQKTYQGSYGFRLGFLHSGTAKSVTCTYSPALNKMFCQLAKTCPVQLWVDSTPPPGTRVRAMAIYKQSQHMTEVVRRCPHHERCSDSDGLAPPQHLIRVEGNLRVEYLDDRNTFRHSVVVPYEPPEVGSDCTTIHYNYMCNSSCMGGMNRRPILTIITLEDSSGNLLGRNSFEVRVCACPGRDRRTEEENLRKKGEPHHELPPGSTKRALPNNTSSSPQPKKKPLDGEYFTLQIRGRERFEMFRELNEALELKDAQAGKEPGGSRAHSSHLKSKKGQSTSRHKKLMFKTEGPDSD
T1 sequence (Q00987 whole entry, looked up): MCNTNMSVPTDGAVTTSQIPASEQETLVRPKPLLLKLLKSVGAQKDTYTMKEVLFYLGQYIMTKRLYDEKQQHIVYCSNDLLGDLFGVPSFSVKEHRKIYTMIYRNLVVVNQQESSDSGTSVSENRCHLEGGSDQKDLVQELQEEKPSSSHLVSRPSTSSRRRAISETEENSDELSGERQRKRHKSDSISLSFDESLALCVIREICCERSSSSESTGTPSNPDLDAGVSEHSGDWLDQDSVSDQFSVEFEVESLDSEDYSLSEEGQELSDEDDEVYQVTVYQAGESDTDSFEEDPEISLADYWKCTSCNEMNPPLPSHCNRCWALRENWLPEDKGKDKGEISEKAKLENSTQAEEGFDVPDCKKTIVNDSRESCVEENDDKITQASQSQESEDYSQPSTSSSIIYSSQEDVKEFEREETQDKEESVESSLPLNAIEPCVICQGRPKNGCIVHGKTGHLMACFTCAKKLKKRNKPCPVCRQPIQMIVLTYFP
Chain of E3 ubiquitin-protein ligase Mdm2 (Q00987 whole entry): as the sequence (Q00987 whole entry, looked up) above

SMILES | Ki [1] [µM] | IC50 [2] [µM] | inhibition [3] | IC50 [4] [µM] | inhibition [5] | IC50 [6] [µM] | viability at 5 µM [7] [%] | IC50 [8] [µM] | IC50 [9] [µM] | viability at 1 µM [10] [%] | inhibition in vivo at 100 mg/kg [11] [%] | Activity [12]
CCOc1cc(C(C)(C)C)ccc1C1=N[C@@H](c2ccc(Cl)cc2)[C@@H](c2ccc(Cl)cc2)N1C(=O)N1CCN(CCCCCCC(=O)NO)CC1 | 0.06 | 0.99 | Active | 1.11 | Active | 0.89 | – | – | – | – | – | –
COc1ccc(C2=N[C@@H](c3ccc(Cl)cc3)[C@@H](c3ccc(Cl)cc3)N2C(=O)N2CCNC(=O)C2)c(OC(C)C)c1 [NUTLIN-3] | – | 9.58 to 11.7 | – | 9.07 to 9.97 | – | > 100 | 83.3 | 19.8 | 8.5 | 89.8 | 44 | –
CCOc1cc(C(C)(C)C)ccc1C1=NC(c2ccc(Cl)cc2)C(c2ccc(Cl)cc2)N1C(=O)N1CCN(CCCCCCCC(=O)NO)CC1 (stereo not drawn) | 0.29 | 2.01 | – | 1.71 | – | 0.41 | – | 7.76 | 4.83 | – | – | –
CCOc1cc(C(C)(C)C)ccc1C1=NC(c2ccc(Cl)cc2)C(c2ccc(Cl)cc2)N1C(=O)N1CCN(CCCCC(=O)NO)CC1 (stereo not drawn) | 0.17 | 3.78 | – | 5.21 | – | 0.98 | – | 12.9 | 9.8 | – | – | –
CCOc1cc(C(C)(C)C)ccc1C1=NC(c2ccc(Cl)cc2)C(c2ccc(Cl)cc2)N1C(=O)NCCCCCCC(=O)Nc1ccccc1N (stereo not drawn) | 0.62 | 16 | – | 10.1 | – | 6.07 | – | 17.5 | > 100 | – | – | –
CCOc1cc(C(C)(C)C)ccc1C1=NC(c2ccc(Cl)cc2)C(c2ccc(Cl)cc2)N1C(=O)NCc1ccc(C(=O)NO)cc1 (stereo not drawn) | 0.58 | 7.64 | – | 9.1 | – | 3.7 | – | 7.71 | 13.3 | – | – | –
CCOc1cc(C(C)(C)C)ccc1C1=NC(c2ccc(Cl)cc2)C(c2ccc(Cl)cc2)N1C(=O)N1CCC(Nc2ncc(C(=O)NO)cn2)CC1 (stereo not drawn) | 0.46 | 3.11 | – | 3.24 | – | 1.01 | – | 7.91 | 2.68 | – | – | –
CCOc1cc(C(C)(C)C)ccc1C1=NC(c2ccc(Cl)cc2)C(c2ccc(Cl)cc2)N1C(=O)NCCCCCCC(=O)NO (stereo not drawn) | 0.32 | 5.97 | – | 7.09 | – | 0.89 | – | 7.65 | 7.23 | – | – | –
CC(=O)Nc1ccc(C(=O)Nc2ccccc2N)cc1 [TACEDINALINE] | – | 10.2 | – | 9.83 | – | – | – | 6.79 | 13.2 | – | – | –
CCOc1cc(C(C)(C)C)ccc1C1=NC(c2ccc(Cl)cc2)C(c2ccc(Cl)cc2)N1C(=O)N1CCN(CCCCCC(=O)NO)CC1 (stereo not drawn) | 0.17 | 2.91 | – | 4.03 | – | 0.97 | – | 9.39 | 7.26 | – | – | –
CCOc1cc(C(C)(C)C)ccc1C1=NC(c2ccc(Cl)cc2)C(c2ccc(Cl)cc2)N1C(=O)NCCCCCCCC(=O)NO (stereo not drawn) | 0.34 | 4.85 | – | 5.03 | – | 0.27 | – | 9.06 | 7.92 | – | – | –
O=C(CCCCCCC(=O)Nc1ccccc1)NO [VORINOSTAT] | > 20 | – | – | – | – | – | – | 4.92 | – | – | – | –
CCOc1cc(C(C)(C)C)ccc1C1=NC(c2ccc(Cl)cc2)C(c2ccc(Cl)cc2)N1C(=O)NCCCCCC(=O)NO (stereo not drawn) | 0.28 | 5.72 | – | 7.15 | – | 1.13 | – | 10.4 | 10.6 | – | – | –
CCOc1cc(C(C)(C)C)ccc1C1=NC(c2ccc(Cl)cc2)C(c2ccc(Cl)cc2)N1C(=O)NCCCCCCCC(=O)Nc1ccccc1N (stereo not drawn) | 1.02 | 15.2 | – | 9.91 | – | 3.59 | – | 19.6 | 20.3 | – | – | –
CCOc1cc(C(C)(C)C)ccc1C1=N[C@H](c2ccc(Cl)cc2)[C@H](c2ccc(Cl)cc2)N1C(=O)N1CCN(CCCCCCC(=O)NO)CC1 | 10.9 | 9.02 | – | 10 | – | 0.91 | – | – | – | – | – | Active
CCOc1cc(C(C)(C)C)ccc1C1=NC(c2ccc(Cl)cc2)C(c2ccc(Cl)cc2)N1C(=O)NCCCCCC(=O)Nc1ccccc1N (stereo not drawn) | 1.43 | 20.3 | – | 21.8 | – | > 20 | – | 19.1 | > 100 | – | – | –
CCOc1cc(C(C)(C)C)ccc1C1=NC(c2ccc(Cl)cc2)C(c2ccc(Cl)cc2)N1C(=O)NCCCCC(=O)NO (stereo not drawn) | 0.33 | 9.34 | – | 10.7 | – | 2.92 | – | 16.2 | 12.8 | – | – | –
CCOc1cc(C(C)(C)C)ccc1C1=NC(c2ccc(Cl)cc2)C(c2ccc(Cl)cc2)N1C(=O)N1CCN(c2ncc(C(=O)NO)cn2)CC1 (stereo not drawn) | 1.05 | 1.97 | – | 0.98 | – | 0.31 | – | 5.45 | 3.46 | – | – | –
CCOc1cc(C(C)(C)C)ccc1C1=NC(c2ccc(Cl)cc2)C(c2ccc(Cl)cc2)N1C(=O)N1CCN(CC(=O)NO)CC1 (stereo not drawn) | 0.07 | 4.32 | – | 5.88 | – | 4.2 | – | 11.5 | 11.7 | – | – | –
CCOc1cc(C(C)(C)C)ccc1C1=NC(c2ccc(Cl)cc2)C(c2ccc(Cl)cc2)N1C(=O)NCCCCC(=O)Nc1ccccc1N (stereo not drawn) | 0.96 | 18.4 | – | 13.9 | – | > 20 | – | 15.6 | 29.1 | – | – | –
CCOc1cc(C(C)(C)C)ccc1C1=NC(c2ccc(Cl)cc2)C(c2ccc(Cl)cc2)N1C(=O)N1CCC(C(=O)Nc2ccc(/C=C/C(=O)NO)cc2)CC1 (stereo not drawn) | 2.65 | 7.59 | – | 9.64 | – | 0.97 | – | 9.36 | 7.22 | – | – | –
CCOc1cc(C(C)(C)C)ccc1C1=NC(c2ccc(Cl)cc2)C(c2ccc(Cl)cc2)N1C(=O)N1CCC(C(=O)NO)CC1 (stereo not drawn) | 0.057 | 2.99 | – | 9.3 | – | 9.72 | – | 9.87 | 10.1 | – | – | –
CCOc1cc(C(C)(C)C)ccc1C1=NC(c2ccc(Cl)cc2)C(c2ccc(Cl)cc2)N1C(=O)N1CCN(Cc2ccc(C(=O)NO)cc2)CC1 (stereo not drawn) | 0.26 | 2.17 | – | 2.03 | – | 3.51 | – | 3 | 3.97 | – | – | –
